“Also recorded” adds a separate entry of the source. Where two headings read alike, the source gives them in different places.
Tests used:
[1] = target: T1, P2X receptor (vas deferens) (Cavia porcellus, UniProt A0A286XVA9); assay: Contraction of guinea pig isolated vas deferens
T1 sequence (A0A286XVA9 1-399): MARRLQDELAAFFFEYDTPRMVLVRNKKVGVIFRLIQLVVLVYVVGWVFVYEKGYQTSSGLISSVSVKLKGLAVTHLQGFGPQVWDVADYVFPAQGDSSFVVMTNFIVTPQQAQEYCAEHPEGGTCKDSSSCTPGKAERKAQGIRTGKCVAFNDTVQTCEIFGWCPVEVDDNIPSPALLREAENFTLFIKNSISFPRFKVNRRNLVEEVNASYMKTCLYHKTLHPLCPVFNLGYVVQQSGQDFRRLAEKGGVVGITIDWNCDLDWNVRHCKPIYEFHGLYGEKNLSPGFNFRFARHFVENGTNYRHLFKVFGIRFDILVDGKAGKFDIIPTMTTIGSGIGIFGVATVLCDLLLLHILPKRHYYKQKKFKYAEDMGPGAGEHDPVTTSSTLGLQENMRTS

[2] = system: P2Y receptor (mesenteric artery); assay: Relaxation of rabbit mesenteric artery; details: for relaxation pD2, mes. artery: log molar units
[3] = target: T2, P2Y receptor (taenia coli) (Cavia porcellus, UniProt P59902); assay: Relaxation of carbachol-contracted guinea pig taenia coli
T2 construct: Relaxant responses mediated via P2Y receptors were examined in guinea pig taenia coli; from tissue; host or cells: guinea pig taenia coli (carbachol-contracted)
T2 sequence (P59902 whole entry): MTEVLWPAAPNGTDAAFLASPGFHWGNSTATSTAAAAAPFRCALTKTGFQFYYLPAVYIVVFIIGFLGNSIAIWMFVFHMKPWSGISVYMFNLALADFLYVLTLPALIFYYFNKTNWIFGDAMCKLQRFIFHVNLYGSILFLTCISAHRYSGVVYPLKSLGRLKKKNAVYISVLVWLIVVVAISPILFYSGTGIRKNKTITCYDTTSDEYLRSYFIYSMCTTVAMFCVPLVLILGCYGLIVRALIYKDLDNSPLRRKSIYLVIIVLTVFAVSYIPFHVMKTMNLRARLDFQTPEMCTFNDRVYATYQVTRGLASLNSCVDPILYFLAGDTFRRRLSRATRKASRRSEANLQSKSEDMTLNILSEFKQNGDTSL
Description: (§1) Muscular relaxation/contraction: Relaxant responses mediated via P2Y receptors were examined in guinea pig taenia coli, rabbit aorta, and rabbit mesenteric artery, as described by Hoyle et al. (Br. J. Pharmacol., 107, 367-374 (1992a)), Burnstock et al., (Br. J. Pharmacol., 90, 383-391 (1987a)), and Rubino et al., (Eur. J. Pharmacol., 212, 237-240 (1992)). Contractile responses mediated via P2X receptors were examined in the guinea pig urinary bladder and vas deferens, and rabbit saphenous artery, also using standard methods (see Hoyle et al., supra., 1992; Hoyle et al., Br. J. Pharmacol., 99, 617-621 (1990); and Burnstock et al., Br. J. Pharmacol., 90, 111-120 (1987b)).
Muscular relaxation assays were performed as recited in Example 3. […] All curves are the mean of two determinations except for 5'-ATP (n=38), 2-hexylthio-ATP (n=4), 2-(5-hexenyl)thio-ATP (n=3), and 2-(2-4-nitrophenylethyl)thio-AMP (n=5). […] The pD2 value for 2-methylthio-ATP is 8.0±0.15, as reported by Hoyle et al., in Receptor Data for Biological Experiments, (H. N. Doods and J. C. A. Van Meel, eds., 1992b) at pp. 54-61.
(§2) Phospholipase C activity and muscle relaxation/contraction effects were assessed using the methods recited in Example 3. In FIGS. 10-12, which present the result of assays of phospholipase C activity in turkey erythrocyte membranes, the x-axis is marked in units of the log of the molar concentration of the putative P2Y receptor agonist tested and the y-axis is marked in units of the percentage of maximum production of [^3 H]-inositol phosphate generated. In FIG. 13, the x-axis is marked in units of the negative log of the molar concentration of applied putative P2Y receptor agonists and the y-axis is marked in units of the percentage relaxation of the 50 nM carbachol-induced contraction of guinea pig taenia coli. In FIG. 14, the x-axis is also marked in units of the negative log of the molar concentration of applied putative P2Y receptor agonists and the y-axis is marked in units of the percentage relaxation of the 1 μM noradrenalin-induced contraction of rabbit aorta endothelium. In FIGS. 15-16, the x-axis is marked in units of the negative log of the molar concentration of applied putative p^2X receptor agonists and the y-axis is marked in units of the percentage contraction relative to a standard dose of KCl (i.e., 60 mM), as assessed in guinea pig isolated urinary bladder detrussor muscle (FIG. 15) and guinea pig isolated vas deferens (FIG. 16).

[4] = target: T3, P2Y receptor (turkey erythrocyte membranes) (Meleagris gallopavo, UniProt P49652); assay: Stimulation of phospholipase C (inositol phosphate formation) in turkey erythrocyte membranes; format: biochemical; details: for activity/potency in words, turkey erythrocyte / EC50: turkey erythrocyte membranes
T3 construct: from tissue; host or cells: washed turkey erythrocytes, ghosts prepared by hypotonic lysis
T3 sequence (P49652 whole entry): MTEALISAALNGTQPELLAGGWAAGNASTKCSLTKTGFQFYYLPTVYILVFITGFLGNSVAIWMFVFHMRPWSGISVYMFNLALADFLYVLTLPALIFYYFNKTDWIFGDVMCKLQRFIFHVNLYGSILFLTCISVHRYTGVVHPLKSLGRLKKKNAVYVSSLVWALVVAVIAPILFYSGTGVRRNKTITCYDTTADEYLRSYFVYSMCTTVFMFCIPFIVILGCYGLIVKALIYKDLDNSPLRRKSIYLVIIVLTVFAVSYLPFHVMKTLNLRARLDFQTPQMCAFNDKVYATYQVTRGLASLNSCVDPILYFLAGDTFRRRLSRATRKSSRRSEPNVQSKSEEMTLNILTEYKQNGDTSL
Experimental: Phospholipase C activity: Stimulation of inositol phosphate formation by compounds of the present invention was measured in turkey erythrocyte membranes as described by Harden et al., supra and Boyer et al., supra. The K0.5 values were averaged from 3-8 independently determined dose-response curves for each compound. Briefly, one ml of washed turkey erythrocytes was incubated in inositol-free medium (DMEM; Gibco) with 0.5-1 mCi of 2-[^3 H]myoinositol (20 Ci/mmol; American Radiolabeled Chemicals Inc., St. Louis, Mo.)for 18-24 h in a humidified atmosphere of 95% air 5% CO2 at 37° C. Erythrocyte ghosts were prepared by rapid lysis in hypotonic buffer (5 mM sodium phosphate, pH 7.4, 5 mM MgCl2, 1 mM EGTA) as described by Boyer et al., supra. Phospholipase C activity was measured in 25 μl of [^3 H]inositol-labeled ghosts (≈175 μg of protein, 200-500,000 cpm/assay) in a medium containing 424 μM CaC12, 0.91 mM MgSO4, 2 mM EGTA, 115 mM KCl, 5 mM KH2 PO4, and 10 mM Hepes, pH 7.0. Assay (100 μl or 200 μl final volume) contained 1 μM GTPγS and the indicated concentrations of nucleotide analogs. Ghosts were incubated at 30° C. for 5 min, and total [^3 H]inositol phosphates were quantitated after purification by anion exchange chromatography according to Harden et al. (supra) and Boyer et al. (supra).
as §2

[5] = system: P2Y receptor (aorta endothelium); assay: Relaxation of noradrenalin-contracted rabbit aorta; details: for activity/potency/selectivity in words, aorta: rabbit aorta endothelial P2Y receptor; for relaxation pD2, aorta: rabbit aorta, log molar units
[6] = target: T4, P2X receptor (saphenous artery) (Oryctolagus cuniculus, UniProt G1U3D6); assay: Contraction of rabbit saphenous artery; details: for activation at 10 µM: read-out: response at 10 μM relative to the contraction produced by 1 μM α,MeATP, saph. artery
T4 construct: and rabbit saphenous artery; from tissue; host or cells: rabbit saphenous artery
T4 sequence (G1U3D6 1-399): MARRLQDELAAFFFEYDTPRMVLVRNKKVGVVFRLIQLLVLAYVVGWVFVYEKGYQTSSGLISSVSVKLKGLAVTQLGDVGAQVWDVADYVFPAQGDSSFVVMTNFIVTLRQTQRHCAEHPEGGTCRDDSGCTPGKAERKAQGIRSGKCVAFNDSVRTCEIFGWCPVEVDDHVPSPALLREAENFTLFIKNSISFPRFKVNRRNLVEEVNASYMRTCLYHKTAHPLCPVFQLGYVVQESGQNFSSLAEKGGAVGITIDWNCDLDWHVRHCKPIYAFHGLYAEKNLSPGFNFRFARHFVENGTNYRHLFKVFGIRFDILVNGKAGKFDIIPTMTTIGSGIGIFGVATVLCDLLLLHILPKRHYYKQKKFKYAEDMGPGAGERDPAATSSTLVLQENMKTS
Description: as §1
^c For the saphenous artery, the percentages in brackets are response
at 10 μM relative to the contraction produced by 1 μM α,MeATP
ATP in this assay is very weak (EC50 =
1.78 mM). The highest concentrations of the analogues tested were 3-30

[7] = target: T5, P2X receptor (urinary bladder) (Cavia porcellus, UniProt A0A286XVA9); assay: Contraction of guinea pig isolated urinary bladder detrussor muscle; details: guinea pig urinary bladder
T5 construct: guinea pig isolated urinary bladder detrussor muscle; from tissue; host or cells: guinea pig isolated urinary bladder detrusor muscle

[8] = mean ± S.E.M. for at least 2 determinations, read-out: phosphatidyl inositol metabolism (K0.5, nM) erythrocyte
[9] = guinea pig taenia coli, log molar units, read-out: relaxation pD2, taenia coli (converted)

Row | SMILES | activity/potency in words, vas deferens [1] | activity/potency in words, taenia coli ([3]; guinea pig taenia coli) | activity/potency in words, turkey erythrocyte [4] | EC50 [4, 8] | activity/potency in words, bladder [7] | relaxation pD2, mes. artery [2] | relaxation pD2, aorta [5] | other results
1 | Nc1ncnc2c1ncn2[C@@H]1O[C@H](COP(=O)(O)OP(=O)(O)OP(=O)(O)O)[C@@H](NC(=O)CCc2ccc(O)cc2)[C@H]1O [3'-[3-(p-Hydroxyphenyl)propionylamino]-3'-deoxyadenosine 5'-triphosphate] | more or less as potent as ATP | nearly inactive | nearly inactive | > 100000 nM | more or less as potent as ATP |  |  | activity/potency in words, mesenteric artery [2]: inactive in the mesenteric artery; activity/potency/selectivity in words, aorta ([5]; listed as 3'-[3-(4-hydroxyphenyl)-propionylamino]-3'-deoxy-ATP): considerably more potent than ATP in the aorta; activity/potency/selectivity in words, aorta ([5]; listed as 3-(p-Hydroxyphenyl-propionylamino-3'-deoxy-ATP)): a high degree of selectivity for the aortic endothelial P2Y receptor; activity/potency in words, saphenous artery ([6]; rabbit saphenous artery): inactive in the saphenous artery
2 | Nc1ncnc2c1ncn2[C@@H]1O[C@H](COP(=O)(O)O)[C@@H](O)[C@H]1O [AMP, adenosine 5'-monophosphate, reference compound] | without effect | much less potent | inactive |  | inactive | 5.0 | 4.8 | activation at 100 µM ([4]; 5 min, at 10^-4 M, read-out: % stimulation at concentration indicated): 4 ± 2%
3 | O=c1ccn([C@@H]2O[C@H](COP(=O)(O)OP(=O)(O)OP(=O)(O)O)[C@@H](O)[C@H]2O)c(=O)[nH]1 [UTP, reference compound] | without effect in the vas deferens |  |  | 143000 nM | as potent as or more potent than ATP in the bladder | 6.7 | 4.8 | EC50 [3, 9]: 316 µM
4 | N#CCCCCCCSc1nc(N)c2ncn([C@@H]3O[C@H](COP(=O)(O)O)[C@@H](O)[C@H]3O)c2n1 [2-(6-Cyanohexyl)thio-AMP, 2-(6-cyanohexylthio)-AMP] |  |  |  | 37000 nM |  | 6.2 |  | EC50 [3]: 39.8 µM; EC50 ([4]; read-out: K0.5): 37000 nM; activation at 10 µM ([6]; rabbit saphenous artery, 10 μM): 4.5%
5 | O=c1[nH]c(=O)n([C@@H]2O[C@H](COP(=O)(O)OP(=O)(O)OP(=O)(O)O)[C@@H](O)[C@H]2O)cc1F [5-F-UTP, 5-Fluorouridine 5'-triphosphate] | inactive; also recorded: without effect in the vas deferens | only a weak agonist | only a weak agonist | > 100000 nM | more potent than ATP; also recorded: as potent as or more potent than ATP in the bladder |  | 6.0 | activity/potency in words, mesenteric artery [2]: inactive; activity/potency/selectivity in words, aorta [5]: more potent than ATP; activity/potency in words, saphenous artery ([6]; rabbit saphenous artery): inactive
6 | C=CCCCCSc1nc(NC)c2ncn([C@@H]3O[C@H](COP(=O)(O)O)[C@@H](O)[C@H]3O)c2n1 [N^6 -Me-2-(5-hexenyl)-thio-AMP, N^6 -Me-2-(5-hexenylthio)adenosine monophosphate] |  |  |  | > 100000 nM |  |  |  | activation at 10 µM ([6]; rabbit saphenous artery, 10 μM): 6.7%
7 | Nc1ncnc2c1ncn2[C@H]1CC[C@@H](COP(=O)(O)OP(=O)(O)OP(=O)(O)O)O1 [2',3'-Dideoxy-ATP, 2',3'-dideoxy-ATP, reference compound] | ≈ATP | as potent as ATP at taenia coli P2Y receptors | weakly active at turkey erythrocyte P2Y receptors | 70800 nM | >ATP |  |  | EC50 [3, 9]: 10 µM
8 | Nc1ncnc2c1ncn2[C@@H]1O[C@H](COP(=O)(O)OP(=O)(O)CP(=O)(O)O)[C@@H](O)[C@H]1O [β,γ-Me-ATP, β,γ-methylene-ATP, reference compound] | markedly enhanced activity | reduced activity in the taenia coli | nearly inactive at ≥100 μM |  | markedly enhanced activity |  |  | EC50 ([4]; phosphatidyl inositol metabolism (K0.5, nM) erythrocyte, mean ± S.E.M. for at least 2 determinations): > 100000 nM; activation at 10 µM [6]: 89%

— patent publication US5620676A, “Biologically active ATP analogs” (priority 1995, dated 1997)
